One may read the EC50 as the concentration needed to bring the measured effect to its halfway point. In general, IC50 refers to the concentration at which inhibition is half-maximal. In general, AC50 refers to the concentration at which the activity in the assay is half-maximal.

The target of assay [1] is E3 ubiquitin-protein ligase Mdm2 (Homo sapiens, UniProt Q00987). The experiment in a line: enhancers of MDM2-luciferase reporter signal, concentration-effect titration, project on inhibitors of MDM2 ubiquitin ligase, cellular assay, luminescent readout, 384-well plate format (AID 1394).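 Also: MDM2 E3 inhibitors raise luminescence so EC50 is for signal enhancement.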 The class given is functional.
E3 ubiquitin-protein ligase Mdm2, sequence (Q00987 whole entry): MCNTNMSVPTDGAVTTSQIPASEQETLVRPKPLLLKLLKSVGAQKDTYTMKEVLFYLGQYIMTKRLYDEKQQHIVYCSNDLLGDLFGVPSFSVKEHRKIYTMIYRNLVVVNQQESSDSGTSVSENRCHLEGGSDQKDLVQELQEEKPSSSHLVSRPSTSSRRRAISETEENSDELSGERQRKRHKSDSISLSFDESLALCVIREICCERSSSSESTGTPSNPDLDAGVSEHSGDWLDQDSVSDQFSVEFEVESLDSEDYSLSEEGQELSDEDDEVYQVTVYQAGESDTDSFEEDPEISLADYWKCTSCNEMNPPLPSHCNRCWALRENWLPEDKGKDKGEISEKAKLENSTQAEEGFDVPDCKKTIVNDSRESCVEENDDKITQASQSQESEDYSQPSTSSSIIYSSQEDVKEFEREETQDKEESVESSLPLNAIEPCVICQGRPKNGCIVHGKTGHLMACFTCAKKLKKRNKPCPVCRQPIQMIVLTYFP
Another assay relates to Streptococcus. The experiment in a line: Group A Streptococcus viability loss, dose response, counter-screen for streptokinase expression inhibitor project, luminescence, BacTiterGlo (AID 1915).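 Also: potency for reduction of bacterial viability or growth.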 It counts as functional, organism-based. For orientation: Counterscreens check selectivity or assay interference.
Assay [2] concerns HEK293. The experiment in a line: Fluorescence-based counterscreen for potentiators or agonists of NPY-Y2: cell-based high-throughput dose response assay to identify inhibitors of cyclic nucleotide gated ion channel (CNGC) activity. In this assay, the parental HEK293 cell line transfected with a cyclic-nucleotide gated ion channel (CNGC)-based cAMP sensor is used to measure inhibition of isoproterenol-induced CNGC activity by test compound. The class given is functional. The conditions noted are these: Homo sapiens.

The subject of assay [3] is Streptococcus sp. 'group A'. The experiment in a line: growth inhibition of control SK(-) GAS strain, dose response, counter-screen for streptokinase expression inhibitor project, luminescence, kanamycin, BacTiterGlo, confirmation (AID 1900). The class given is functional, organism-based.
A short description of assay [4]: M. tuberculosis H37Rv growth inhibitors, H37Rv strain (AID 1626). The class given is functional.
The target of assay [5] is Luciferin 4-monooxygenase (Photinus pyralis, UniProt P08659). The assay can be described thus: Counter Screen for Luciferase-based Assay Positives. [Related pubchem assays: 620, 618, 411 ].
Luciferin 4-monooxygenase, sequence (P08659 whole entry): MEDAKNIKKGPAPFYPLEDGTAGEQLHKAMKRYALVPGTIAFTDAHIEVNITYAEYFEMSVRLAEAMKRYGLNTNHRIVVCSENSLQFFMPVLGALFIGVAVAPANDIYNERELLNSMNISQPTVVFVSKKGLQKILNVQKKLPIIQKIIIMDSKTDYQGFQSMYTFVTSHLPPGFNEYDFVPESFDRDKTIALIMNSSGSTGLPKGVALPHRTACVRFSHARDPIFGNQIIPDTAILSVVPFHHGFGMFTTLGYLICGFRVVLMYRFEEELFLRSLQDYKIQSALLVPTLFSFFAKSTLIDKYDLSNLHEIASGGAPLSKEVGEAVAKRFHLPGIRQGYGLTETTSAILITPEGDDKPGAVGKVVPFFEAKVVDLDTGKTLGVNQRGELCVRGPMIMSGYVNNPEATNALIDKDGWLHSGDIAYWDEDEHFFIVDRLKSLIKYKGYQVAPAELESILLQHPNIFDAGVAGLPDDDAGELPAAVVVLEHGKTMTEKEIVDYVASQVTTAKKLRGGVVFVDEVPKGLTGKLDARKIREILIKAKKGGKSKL
A further assay relates to HT-1080. The assay can be described thus: cytotoxicity in HT1080 fibrosarcoma cells, cell-based, fluorescence readout (AID 620). Particulars: Homo sapiens. The class given is functional.
The next assay addresses T1, Protein skinhead-1 (Caenorhabditis elegans, UniProt P34707).
T1 sequence (P34707 whole entry): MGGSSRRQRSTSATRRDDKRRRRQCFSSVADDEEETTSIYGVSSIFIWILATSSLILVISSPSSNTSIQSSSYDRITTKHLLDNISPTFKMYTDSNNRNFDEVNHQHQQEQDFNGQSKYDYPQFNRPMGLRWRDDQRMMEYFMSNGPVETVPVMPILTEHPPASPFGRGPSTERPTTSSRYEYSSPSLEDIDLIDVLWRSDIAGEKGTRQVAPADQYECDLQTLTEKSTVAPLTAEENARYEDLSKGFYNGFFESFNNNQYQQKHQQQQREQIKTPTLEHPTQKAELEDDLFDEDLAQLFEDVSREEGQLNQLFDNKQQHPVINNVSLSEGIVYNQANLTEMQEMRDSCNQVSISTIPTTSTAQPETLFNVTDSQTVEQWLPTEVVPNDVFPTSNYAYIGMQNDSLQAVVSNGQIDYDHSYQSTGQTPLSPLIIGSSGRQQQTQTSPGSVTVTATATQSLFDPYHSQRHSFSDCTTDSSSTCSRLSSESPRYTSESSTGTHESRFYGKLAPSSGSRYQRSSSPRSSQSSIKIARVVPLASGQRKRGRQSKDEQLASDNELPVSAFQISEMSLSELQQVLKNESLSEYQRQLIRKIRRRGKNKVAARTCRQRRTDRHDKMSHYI
It counts as functional.

The target in a further assay is NADPH oxidase 1 (Homo sapiens, UniProt Q9Y5S8). The class given is functional, cell-based.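 Also: Cell-based assay with luminescence read-out, IC50 derived from inhibitor dose-response curves; intracellular ROS from endogenous NOX1 in intact HT29 colon cancer cells; potency of inhibitors that lower the ROS luminescence signal.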
NADPH oxidase 1, sequence (Q9Y5S8 whole entry): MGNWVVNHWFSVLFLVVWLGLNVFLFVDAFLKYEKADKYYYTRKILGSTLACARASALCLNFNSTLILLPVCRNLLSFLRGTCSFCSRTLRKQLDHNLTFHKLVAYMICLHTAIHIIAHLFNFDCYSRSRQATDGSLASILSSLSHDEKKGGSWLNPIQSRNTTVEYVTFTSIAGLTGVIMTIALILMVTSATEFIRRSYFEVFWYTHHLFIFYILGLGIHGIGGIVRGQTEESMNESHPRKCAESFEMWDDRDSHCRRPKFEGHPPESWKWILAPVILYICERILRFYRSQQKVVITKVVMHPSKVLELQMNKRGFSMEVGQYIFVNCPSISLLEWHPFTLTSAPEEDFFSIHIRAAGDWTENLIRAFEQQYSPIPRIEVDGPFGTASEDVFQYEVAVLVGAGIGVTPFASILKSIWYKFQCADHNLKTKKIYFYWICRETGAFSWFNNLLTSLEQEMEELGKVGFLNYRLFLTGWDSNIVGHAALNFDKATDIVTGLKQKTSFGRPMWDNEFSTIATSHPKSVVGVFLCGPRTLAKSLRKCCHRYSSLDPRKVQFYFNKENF
Another assay deals with Ephrin type-A receptor 4 (Mus musculus, UniProt Q03137). The assay can be described thus: inhibitors of EphA4 binding to KYL peptide, primary screen, biochemical, colorimetric, mouse EphA4 (AID 689). It counts as functional.
Ephrin type-A receptor 4, sequence (Q03137 whole entry): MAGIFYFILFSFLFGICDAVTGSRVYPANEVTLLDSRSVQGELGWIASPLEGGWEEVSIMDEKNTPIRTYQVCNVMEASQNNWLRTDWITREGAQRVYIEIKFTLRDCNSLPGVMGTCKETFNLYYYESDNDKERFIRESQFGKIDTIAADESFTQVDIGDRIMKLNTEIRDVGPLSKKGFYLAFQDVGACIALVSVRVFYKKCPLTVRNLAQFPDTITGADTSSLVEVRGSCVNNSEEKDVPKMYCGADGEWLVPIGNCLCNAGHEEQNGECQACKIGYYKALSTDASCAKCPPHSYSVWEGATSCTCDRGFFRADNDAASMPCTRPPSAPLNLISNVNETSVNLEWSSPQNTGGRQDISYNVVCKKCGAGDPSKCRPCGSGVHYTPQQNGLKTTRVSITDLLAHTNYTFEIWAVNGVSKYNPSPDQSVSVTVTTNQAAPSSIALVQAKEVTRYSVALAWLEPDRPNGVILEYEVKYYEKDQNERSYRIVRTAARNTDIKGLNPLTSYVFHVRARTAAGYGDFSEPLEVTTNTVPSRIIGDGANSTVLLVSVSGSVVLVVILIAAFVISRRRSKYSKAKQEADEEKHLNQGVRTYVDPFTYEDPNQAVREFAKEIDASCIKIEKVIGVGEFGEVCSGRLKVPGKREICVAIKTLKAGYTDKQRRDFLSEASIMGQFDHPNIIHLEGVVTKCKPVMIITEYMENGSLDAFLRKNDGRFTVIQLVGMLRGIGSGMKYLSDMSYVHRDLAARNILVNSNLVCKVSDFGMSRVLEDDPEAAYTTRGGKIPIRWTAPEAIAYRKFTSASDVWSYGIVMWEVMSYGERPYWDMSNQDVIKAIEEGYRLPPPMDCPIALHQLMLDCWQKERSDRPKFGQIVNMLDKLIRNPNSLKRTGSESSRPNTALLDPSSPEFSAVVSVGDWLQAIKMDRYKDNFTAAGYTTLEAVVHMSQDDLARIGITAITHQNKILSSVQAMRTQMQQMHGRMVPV
Assay [6] addresses T2, Neuropeptide Y receptor type 2 (Homo sapiens, UniProt P49146).
T2 sequence (P49146 whole entry): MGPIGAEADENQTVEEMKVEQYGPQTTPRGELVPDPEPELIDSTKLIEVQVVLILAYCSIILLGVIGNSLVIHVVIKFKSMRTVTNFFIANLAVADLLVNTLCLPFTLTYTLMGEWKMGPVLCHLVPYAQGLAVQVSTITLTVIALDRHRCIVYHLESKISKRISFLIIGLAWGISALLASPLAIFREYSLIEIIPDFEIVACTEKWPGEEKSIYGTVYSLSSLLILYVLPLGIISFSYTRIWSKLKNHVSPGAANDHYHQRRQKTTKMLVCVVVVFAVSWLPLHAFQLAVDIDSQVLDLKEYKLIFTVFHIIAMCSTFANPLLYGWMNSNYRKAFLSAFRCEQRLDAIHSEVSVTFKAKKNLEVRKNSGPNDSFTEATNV
The experiment in a line: Fluorescence-based cell-based high-throughput dose response assay for agonists of NPY-Y2. [Related pubchem assays: 1703 (Screening assay (CNGC inhibitors).), 1359 (Screening assay (NPY-Y2 potentiators or agonists).), 1304 (Screening assay (NPY-Y1 potentiators or agonists).), 1710 (Screening assay (NPY-Y2 agonists).), 1791 (Summary AID.)]. It counts as functional.

For assay [7], the target named is T3, Neuropeptide Y receptor type 1 (Homo sapiens, UniProt P25929).
T3 sequence (P25929 whole entry): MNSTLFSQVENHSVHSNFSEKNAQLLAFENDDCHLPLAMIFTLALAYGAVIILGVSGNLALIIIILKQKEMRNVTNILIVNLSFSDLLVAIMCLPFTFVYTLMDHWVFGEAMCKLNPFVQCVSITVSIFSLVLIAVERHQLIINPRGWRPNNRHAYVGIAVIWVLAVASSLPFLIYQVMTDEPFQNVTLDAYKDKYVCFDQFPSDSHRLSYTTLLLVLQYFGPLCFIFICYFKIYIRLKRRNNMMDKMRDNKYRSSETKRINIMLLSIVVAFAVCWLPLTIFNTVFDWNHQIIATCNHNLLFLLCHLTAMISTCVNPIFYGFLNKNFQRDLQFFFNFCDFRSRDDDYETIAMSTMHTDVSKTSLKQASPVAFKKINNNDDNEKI
The experiment in a line: Fluorescence-based counterscreen for agonists of NPY-Y2: cell-based high-throughput dose response assay for agonists of NPY-Y1. The class given is functional.

The target in assay [8] is Heat shock protein HSP 90-alpha (Homo sapiens, UniProt P07900). The assay can be described thus: Luminescence-based dose response biochemical high throughput screening assay for inhibitors of the Heat Shock Protein 90 (HSP90). [Related pubchem assays: 1831 (Summary AID.), 1846 (Confirmation screen.), 1789 (Primary screen.)].
The target in assay [9] is Peroxisome proliferator-activated receptor gamma/Nuclear receptor corepressor 2 (Homo sapiens, UniProt P37231+Q9Y618). The experiment in a line: Counterscreen for NR2E3 inverse agonists: TR-FRET-based biochemical high throughput dose response assay to identify inverse agonists of the interaction between peroxisome proliferator-activated receptor gamma (PPARg) and nuclear receptor co-repressor 2 (NCOR2). The class given is functional.

The target in assay [10] is Photoreceptor-specific nuclear receptor (Homo sapiens, UniProt Q9Y5X4). The experiment in a line: NR2E3 inverse agonists, dose response, biochemical, TR-FRET (AID 463256). The class given is functional. A general note: TR-FRET usually uses a lanthanide donor and a delayed reading to cut background.
Photoreceptor-specific nuclear receptor, sequence (Q9Y5X4 whole entry): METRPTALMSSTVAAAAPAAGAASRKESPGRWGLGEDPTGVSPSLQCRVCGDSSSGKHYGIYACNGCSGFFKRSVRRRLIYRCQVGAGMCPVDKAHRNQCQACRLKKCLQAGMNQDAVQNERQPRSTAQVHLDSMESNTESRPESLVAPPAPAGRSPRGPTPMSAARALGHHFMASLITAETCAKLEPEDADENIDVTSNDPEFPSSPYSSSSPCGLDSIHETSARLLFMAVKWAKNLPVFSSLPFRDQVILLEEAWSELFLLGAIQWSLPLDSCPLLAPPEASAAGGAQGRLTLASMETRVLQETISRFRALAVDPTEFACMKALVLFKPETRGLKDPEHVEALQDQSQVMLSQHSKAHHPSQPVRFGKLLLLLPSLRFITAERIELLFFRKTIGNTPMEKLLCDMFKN
Assay [11] addresses T4, Acyl-homoserine lactone acylase PvdQ (Pseudomonas aeruginosa (strain LESB58), UniProt Q9I194).
T4 sequence (Q9I194 whole entry): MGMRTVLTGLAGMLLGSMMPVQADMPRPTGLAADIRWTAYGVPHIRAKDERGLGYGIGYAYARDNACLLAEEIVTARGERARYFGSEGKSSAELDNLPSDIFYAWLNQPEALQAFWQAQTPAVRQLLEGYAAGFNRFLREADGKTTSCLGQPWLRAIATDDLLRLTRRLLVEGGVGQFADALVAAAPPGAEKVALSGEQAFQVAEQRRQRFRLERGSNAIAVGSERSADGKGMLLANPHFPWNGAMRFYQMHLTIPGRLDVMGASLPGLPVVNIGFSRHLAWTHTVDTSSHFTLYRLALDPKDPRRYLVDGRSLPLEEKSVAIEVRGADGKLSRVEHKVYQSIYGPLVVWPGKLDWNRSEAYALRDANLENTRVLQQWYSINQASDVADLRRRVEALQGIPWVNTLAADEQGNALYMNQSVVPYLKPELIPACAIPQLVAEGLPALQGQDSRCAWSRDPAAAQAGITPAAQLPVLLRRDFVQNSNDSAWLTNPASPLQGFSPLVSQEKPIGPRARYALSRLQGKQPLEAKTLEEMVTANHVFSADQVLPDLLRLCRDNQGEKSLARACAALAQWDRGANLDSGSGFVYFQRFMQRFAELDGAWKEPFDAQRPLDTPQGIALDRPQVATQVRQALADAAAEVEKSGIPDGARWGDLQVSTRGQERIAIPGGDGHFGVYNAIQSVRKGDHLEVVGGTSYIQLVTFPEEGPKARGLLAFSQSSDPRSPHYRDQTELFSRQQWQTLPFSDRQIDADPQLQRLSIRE
The experiment in a line: P. aeruginosa PvdQ acylase inhibitors, dose response, biochemical, fluorescence, plate reader and imaging, cherry-picks (AID 493231).

Assay [12] deals with HEK293. The assay can be described thus: inhibitors of LMP1-driven NF-kB reporter, dose response, cell-based, HEK293, luciferase, cherry-pick (AID 588343). It counts as functional. The conditions noted are these: Homo sapiens.
A short description of assay [13]: Counterscreen for activators of the function of SWI/SNF related, matrix associated, actin dependent regulator of chromatin, subfamily a, member 2 (SMARCA2, BRM): Luminescence-based cell-based high throughput dose response assay to identify non-selective compounds using the VP16 reporter assay. The class given is functional.
Assay [14] deals with SWI/SNF-related matrix-associated actin-dependent regulator of chromatin subfamily A member 2 (Homo sapiens, UniProt P51531). The experiment in a line: Luminescence-based cell-based high throughput dose response assay to identify activators of the function of SWI/SNF related, matrix associated, actin dependent regulator of chromatin, subfamily a, member 2 (SMARCA2, BRM). The class given is functional.
SWI/SNF-related matrix-associated actin-dependent regulator of chromatin subfamily A member 2, sequence (P51531 whole entry): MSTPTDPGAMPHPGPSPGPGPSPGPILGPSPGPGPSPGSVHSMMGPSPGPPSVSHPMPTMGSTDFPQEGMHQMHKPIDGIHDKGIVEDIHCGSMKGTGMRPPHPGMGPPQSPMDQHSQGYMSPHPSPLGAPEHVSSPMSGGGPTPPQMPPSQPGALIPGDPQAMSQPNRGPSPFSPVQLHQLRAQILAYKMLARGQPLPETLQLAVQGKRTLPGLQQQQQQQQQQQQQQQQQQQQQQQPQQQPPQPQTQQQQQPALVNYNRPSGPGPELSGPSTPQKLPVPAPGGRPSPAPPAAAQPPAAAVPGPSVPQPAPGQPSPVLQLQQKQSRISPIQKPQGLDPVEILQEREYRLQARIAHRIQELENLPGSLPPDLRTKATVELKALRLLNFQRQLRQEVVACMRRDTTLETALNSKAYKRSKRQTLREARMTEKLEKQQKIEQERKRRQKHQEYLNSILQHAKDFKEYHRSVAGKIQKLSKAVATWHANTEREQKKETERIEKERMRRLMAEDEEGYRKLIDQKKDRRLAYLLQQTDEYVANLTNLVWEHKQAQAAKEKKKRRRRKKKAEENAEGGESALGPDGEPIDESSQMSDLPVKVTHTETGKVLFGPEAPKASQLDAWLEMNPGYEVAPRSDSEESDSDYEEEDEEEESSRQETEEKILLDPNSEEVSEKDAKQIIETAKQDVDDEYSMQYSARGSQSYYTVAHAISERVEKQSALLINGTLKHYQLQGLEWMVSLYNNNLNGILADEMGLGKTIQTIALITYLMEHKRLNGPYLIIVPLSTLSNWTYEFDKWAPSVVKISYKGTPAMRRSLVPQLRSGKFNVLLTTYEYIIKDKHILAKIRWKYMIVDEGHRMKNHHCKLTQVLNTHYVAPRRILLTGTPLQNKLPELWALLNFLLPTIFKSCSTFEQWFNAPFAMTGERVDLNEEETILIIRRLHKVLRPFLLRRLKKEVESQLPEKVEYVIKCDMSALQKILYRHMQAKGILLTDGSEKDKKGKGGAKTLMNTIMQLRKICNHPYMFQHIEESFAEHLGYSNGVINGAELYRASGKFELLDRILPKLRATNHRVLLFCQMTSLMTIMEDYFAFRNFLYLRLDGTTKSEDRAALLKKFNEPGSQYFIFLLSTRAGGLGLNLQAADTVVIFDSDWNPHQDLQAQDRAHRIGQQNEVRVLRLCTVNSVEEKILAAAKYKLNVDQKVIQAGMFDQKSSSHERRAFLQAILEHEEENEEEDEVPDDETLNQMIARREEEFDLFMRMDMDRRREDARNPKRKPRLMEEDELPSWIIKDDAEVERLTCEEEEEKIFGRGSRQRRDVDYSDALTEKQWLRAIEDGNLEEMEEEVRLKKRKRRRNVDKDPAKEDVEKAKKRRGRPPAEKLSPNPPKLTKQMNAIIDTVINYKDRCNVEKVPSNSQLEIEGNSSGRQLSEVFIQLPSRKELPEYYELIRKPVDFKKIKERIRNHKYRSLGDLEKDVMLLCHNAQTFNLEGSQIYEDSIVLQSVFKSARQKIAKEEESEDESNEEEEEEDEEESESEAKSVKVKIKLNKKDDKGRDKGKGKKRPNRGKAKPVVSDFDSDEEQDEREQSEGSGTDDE

Assay [15] can be described thus: enhancers of respiration in Yfh1-depleted yeast, dose response, Friedreich's ataxia, plus single-dose screen (AID 1465).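 Also: yeast depleted of Yfh1p frataxin homolog grown on glycerol needing respiration; WST-1 tetrazolium dye reduction as measure of cellular dehydrogenase metabolic activity.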 The class given is functional.

Calls of active or inactive are those of the source.

Consider `CCOC(=O)Cn1nnnc1C`, for which, in assay [1], the EC50 is on record as 827 µM (not active).
Turning to `O=[N+]([O-])c1cc(C(F)(F)F)cc([N+](=O)[O-])c1NCCN=C(S)Nc1ccc(Cl)c(Cl)c1`, the results for the EC50 (with Streptococcus; in the assay with HEK293 [2]; in assay [3]) were 6.5 µM (active), 7.47 µM (active) and 4.03 µM (active), respectively.
As for `Cc1cc(C)cc(OCc2nnc(SCC(=O)OC(C)C)o2)c1`, the IC50 in assay [4] is > 100 µM (active).
Regarding `Cc1ccc(S(=O)(=O)N2CCN(C(=O)CC(C)C)CC2)cc1`, in [1], the EC50 is 7.17 µM (not active).
For `O=c1c2ccccc2nnn1CSc1nnc2sc3ccccc3n12`, the values for the EC50 (in assay [5]; in the assay on HT-1080) were 0.52 µM (active) and > 50 µM (not active), respectively.
With `COc1ccccc1NC(=O)CN1CCN(C2c3ccccc3-c3ccccc32)CC1`, the values for the IC50 (in assay [4]; at Protein skinhead-1) were > 100 µM (active) and > 100 µM (inactive), respectively.
Turning to `O=C(Oc1ccc([N+](=O)[O-])cc1)c1cc2ccccc2s1`, the IC50 against NADPH oxidase 1 is > 17 µM (not active).
For the compound `CCc1cccc2c(C(=O)CSc3nnc(-c4ccoc4C)n3C)c[nH]c12`, the half-inhibitory concentration (IC50) on Ephrin type-A receptor 4 was 12.7 µM (active).
`O=C(NNC(=O)Nc1ccc(Cl)cc1)Nc1ccc(Cl)cc1`: the IC50 on NADPH oxidase 1 is given as > 17 µM (not active).
Consider `Cc1cc2c(cc1C)N(C(=O)CSC1=NCCS1)C(C)(C)c1ssc(=S)c1-2`, for which the half-maximal effective concentration (EC50) was 32 µM (not active) in assay [6], > 35.4 µM (not active) in the assay with HEK293 [2] and 22.2 µM (not active) in [7].
In the case of `Cc1cc2ccccc2n1CCNC(=O)c1ccccc1`, the results for the half-inhibitory concentration (IC50) (in [8]; on Protein skinhead-1; at Ephrin type-A receptor 4) were 2.52 µM (active), > 100 µM (inactive) and 32.7 µM (active), respectively.
With `CC(=O)c1sc(NC(=O)CCCOc2ccc(Cl)cc2)nc1C`, the half-maximal inhibitory concentration (IC50) in assay [9] was 3.5 µM (active); in [10], 4.49 µM (active).
`CCOc1ccc(NC(=O)c2cnsn2)cc1`: the EC50 in assay [5] is 48.3 µM (active); in the assay on HT-1080, > 50 µM (not active); in assay [13], > 91.2 µM (inactive); in assay [14] it was > 91.2 µM (inactive). The values for the AC50 (in [11]; in the assay on HEK293 [12]) were 81 µM (active) and 5.39 µM (active), respectively.
Regarding `COc1cc([N+](=O)[O-])cc(/C=N\NC(=O)C2COc3ccccc3O2)c1O` (stereo not given), the EC50 in the assay with Streptococcus was 3.33 µM (active); in [3], 2.97 µM (active); in [15] it was > 100 µM (active).

These data come from ChEMBL document CHEMBL1201862, “PubChem BioAssay data set” (2004).
